From US20090041719A1, “Method for screening therapeutic agent for glomerular disorder” (priority 2006, published 2009)
Several values for one entry are separate records, joined by “and”; a condition that tells them apart may be missing. Identical values can stand only once.

How the values were obtained:
[1] = test system: glomerular lesions; renal tubulointerstitial lesions; conditions: International Publication WO 2004/024185 and 01/72730 pamphlets; cited from earlier work
[2] = test system: puromycin-induced acute nephrosis model; assay: Puromycin-induced acute nephrosis model: urinary albumin excretion; format: in vivo, SD (Sprague-Dawley) rat
Procedure: It is known that a single intravenous dose of 50 mg/kg of puromycin to a 5-week-old SD (Sprague-Dawley) male rat damages the glomerular epithelial cells, causing severe proteinuria peaking from day 6 to day 14 and gradually decreasing thereafter, and again showing tubular proteinuria (see J. R. Diamond, and M. J. Karnovsky: Focal and segmental glomerulosclerosis following a single intravenous dose of puromycin aminonucleoside, Am. J. Pathol; 1986; 122; 481-487) (hereinafter, this model will be referred to as puromycin-induced acute nephrosis model). Using the above puromycin-induced acute nephrosis model as a model of glomerular lesions, the combinational effect of interferon γ and the composition for preventing, ameliorating, or treating glomerular lesions or disease of kidney was examined. To a 5-week-old SD (Sprague-Dawley) male rat, 30 mg/kg/day of said composition (6-2) was subcutaneously administered every day from five days before the administration of puromycin, and at the same time, 0.25 ml (2.3×10^4U) of rat recombinant interferon γ (by PeproTeck, final concentration: 9.09 μg/ml) was intraperitoneally administered on alternate days from five days before the administration of puromycin, followed by a single intravenous dose of 50 mg/kg of puromycin. Even after the administration of puromycin, the same amount of the composition (6-2) and the rat recombinant interferon γ were continuously administered every day and on alternate days respectively. On days 6, 12, and 19 after the administration of puromycin, 24-hour urine collection was performed to measure the amount of rat urinary albumin excretion by ELIZA method. At the same time, the urinary creatinine concentration was also measured by enzyme method. As indexes of glomerular epithelial damage, albumin excretion and the ratio of urinary albumin excretion to urinary creatinine were compared.

4F2hc [3] = assay: 4F2hc on large-cell fraction of interferon γ-stimulated THP-1, peak value by FACScan; format: cell-based, human
Procedure: The same procedures as in Experimental Example 2 were taken except the following conditions: human leukemia culture cell line THP-1 was used instead of the human peripheral blood mononuclear cells; the final addition concentration of the test compound (6-2) was set to 100 nM; fetal bovine serum was used instead of the human AB serum; and human recombinant interferon γ (PHP050, Serotec) (final concentration: 100 ng/ml) was used instead of LPS. Also, using rabbit anti-human 4F2hc polyclonal antibodies (see Biol Pharm Bull 30: 415-422, 2007) as the primary antibody, the peak value of HAT expressed on the fraction of large-cells in human leukemia culture cell strain THP-1, compared with those not stimulated with LPS, was measured. As a control, the one with no test-compound (DMSO alone) was used, and the rabbit anti-human rBAT polyclonal antibodies were obtained in the same manner as in Experimental Example 2.

rBAT = assay: HAT heavy chain rBAT on large-monocyte fraction of LPS-stimulated human PBMC, peak value by FACScan; format: cell-based
Procedure: In the same manner as in 1) to 5) of Experimental Example 1, to human peripheral blood mononuclear cells, the test compound (6-2) (final concentration: 10 nM) or the test compound (7-3) (final concentration: 100 nM) was added at the same time when LPS (final concentration: 80 μg/ml) was added, followed by 6-day culture. Further, in the same manner as above, using rabbit anti-human 4F2hc polyclonal antibodies (see Biol Pharm Bull 30:415-422, 2007) as a primary antibody, the peak value of HAT expressed on the fraction of large-macrophages (larger than monocyte macrophages) in human PBMC was measured by FACScan using a commercially available cell fix/cell membrane infiltration kit (trade name: BD Cytofix/Cytoperm™ Kit, catalog No. 554714, BD Biosciences).
As a control, the one with no test-compound addition was used, and as a rabbit anti-human rBAT (related to b^0,+-type amino acid transporter) polyclonal antibody, the one obtained by coupling a synthesized peptide composed of an amino-terminal of human rBAT (MAEDKSKRDSIEMSMKGC (SEQ ID NO: 2)) and a carboxyl-terminal of mouse b^0,+AT (BAT1) (CHLQMLEWPEKDPE (SEQ ID NO: 3)) to a carrier KLH (keyhole-limpet hemocyanin), and immunizing a rabbit with it.

FRP-1/CD98/4F2hc = assay: FACScan of FRP-1/CD98/4F2hc expression on macrophage fraction of LPS-stimulated human PBMC (monoclonal antibodies 4-5-1, 6-1-3, HBJ-127); format: cell-based
4F2hc [4] = assay: 4F2hc on large-cell fraction of LPS-stimulated THP-1, peak value by FACScan; format: cell-based, human
Procedure: The same procedures as in Experimental Example 2 were taken except the following conditions: human leukemia culture cell line THP-1 was used instead of the human peripheral blood mononuclear cells; the final addition concentration of the test compound (6-2) was set to 100 nM, and the final addition concentration of the test compound (7-3) was set to 1000 nM; and fetal bovine serum was used instead of the human AB serum. The peak value of HAT expressed on the fraction of large-cells in human leukemia culture cell strain THP-1, compared with those not stimulated with LPS, was measured. As a control, the one with no test-compound addition was used, and the peak value of HAT was measured by FACScan using a commercially available cell fix/cell membrane infiltration kit (trade name: BD Cytofix/Cytopem™ Kit, catalog No. 554714, BD Bioscience).

[5] = human PBMC + LPS 80 μg/ml, 6-day culture, test compound 10 nM

SMILES: O=C1CCC(F)(C(=O)OCc2ccccc2)O1 (stereo not drawn) [Compound (6-2)]
- known action on glomerular lesions [1]: selectively inhibit the glomerular lesions
- Albumin Excretion, Day 6 ([2]; group average): 98.3 mg/day
- Albumin Excretion, Day 12 ([2]; group average): 182.6 mg/day
- Albumin Excretion, Day 19 ([2]; group average): 101.0 mg/day
- Urinary Albumin Excretion/Urinary Creatinine, Day 6 ([2]; group average): 16.7 1/Cr
- Urinary Albumin Excretion/Urinary Creatinine, Day 12 ([2]; group average): 29.1 1/Cr
- Urinary Albumin Excretion/Urinary Creatinine, Day 19 ([2]; group average): 15.8 1/Cr
- Urinary Albumin Excretion/Urinary Creatinine, Day 6 ([2]; individual animal): 12.1 1/Cr and 21.2 1/Cr
- Urinary Albumin Excretion/Urinary Creatinine, Day 12 ([2]; individual animal): 22.3 1/Cr and 35.8 1/Cr
- Urinary Albumin Excretion/Urinary Creatinine, Day 19 ([2]; individual animal): 11.0 1/Cr and 20.5 1/Cr
- Albumin Excretion, Day 6 ([2]; individual animal, 24-hour urine, day 6 after puromycin, compound 30 mg/kg/day s.c., 30 mg/kg/day): 80.7 mg/day and 115.9 mg/day
- Albumin Excretion, Day 12 ([2]; individual animal, 24-hour urine, day 12 after puromycin, compound 30 mg/kg/day s.c., 30 mg/kg/day): 136.0 mg/day and 229.1 mg/day
- Albumin Excretion, Day 19 ([2]; individual animal, 24-hour urine, day 19 after puromycin, compound 30 mg/kg/day s.c., 30 mg/kg/day): 73.4 mg/day and 128.6 mg/day
- Change in HAT expressed on large-cell fraction of THP-1 (peak value by FACScan), 4F2hc (4F2hc [3]; THP-1 + human recombinant interferon γ 100 ng/ml, test compound 100 nM, solvent control 16): 10
- amount of 4F2hc in the heavy chain of HAT (in words) (4F2hc [3]; THP-1 + interferon γ, summary of Table 4): selectively decreased
- Change in HAT expressed on large-monocyte fraction of human PBMC (peak value by FACScan), rBAT (rBAT; human PBMC + LPS 80 μg/ml, 6-day culture, test compound 10 nM, solvent control 37): 40
- amount of rBAT (in words) (rBAT; human PBMC + LPS, summary of Table 2): without any influence
- expression of the FRP-1/CD98/4F2hc molecule lowered to (FRP-1/CD98/4F2hc; a different normal human PBMC, where expression was enhanced to 90% or more, not shown in Table): ≤ 5%
- Migration of FRP-1/CD98/4F2hc expression of macrophage fraction by FACScan (migration rate %), monoclonal antibody 4-5-1 (FRP-1) (FRP-1/CD98/4F2hc; [5]): 32.7%
- Migration of FRP-1/CD98/4F2hc expression of macrophage fraction by FACScan (migration rate %), monoclonal antibody 6-1-3 (FRP-1) (FRP-1/CD98/4F2hc; [5]): 29.8%
- Migration of FRP-1/CD98/4F2hc expression of macrophage fraction by FACScan (migration rate %), monoclonal antibody HBJ-127 (CD98) (FRP-1/CD98/4F2hc; [5]): 11.0%
- expression of FRP-1/CD98/4F2hc on macrophage fraction of human PBMC (in words) (FRP-1/CD98/4F2hc; stimulated and cultured with LPS, summary of Table 1): increased the expression
- Change in HAT expressed on large-cell fraction of THP-1 (peak value by FACScan), 4F2hc (4F2hc [4]; THP-1 + LPS 80 μg/ml, fetal bovine serum, test compound 100 nM, solvent control 12): 25
- amount of 4F2hc in the heavy chain of HAT (in words) (4F2hc [4]; THP-1 + LPS, summary of Table 3): remarkably changed
